Columns and labels:
[1] = xn = mol fraction of the nth substance listed; conditions: 101 kPa, Liquid; for viscosity: Capillary tube (Ostwald / Ubbelohde) method; for mass density: Vibrating tube method
[2] = refractive index (Na D-line) (dimensionless); xn = mol fraction of the nth substance listed; conditions: 101 kPa, Liquid, Standard Abbe refractometry

CCC(C)(C)O [2-methylbutan-2-ol] + C1CCOC1
Conditions	mass density, 288.15 K [kg/m3]	mass density, 298.15 K [kg/m3]	mass density, 308.15 K [kg/m3]	refractive index, 288.15 K	refractive index, 298.15 K	refractive index, 308.15 K	viscosity, 288.15 K [mPa·s]	viscosity, 298.15 K [mPa·s]	viscosity, 308.15 K [mPa·s]
[1], x1 = 0.1028	881.2	870.63	859.92	–	–	–	0.7142	0.5079	0.4359
[1], x1 = 0.1791	873.29	862.93	852.42	–	–	–	0.895	0.5724	0.4592
[1], x1 = 0.2676	865.01	854.87	844.57	–	–	–	1.13	0.6232	0.5449
[1], x1 = 0.3601	857.15	847.22	837.11	–	–	–	1.365	0.7532	0.6428
[1], x1 = 0.45	850.2	840.46	830.51	–	–	–	1.63	0.8859	0.747
[1], x1 = 0.5402	843.79	834.19	824.37	–	–	–	1.968	1.064	0.8887
[1], x1 = 0.6295	837.94	828.48	818.76	–	–	–	2.399	1.288	1.055
[1], x1 = 0.7058	833.16	823.78	814.12	–	–	–	2.849	1.548	1.232
[1], x1 = 0.8097	826.96	817.62	808.01	–	–	–	3.623	2.008	1.548
[1], x1 = 0.8903	821.89	812.56	802.98	–	–	–	4.381	2.517	1.907
[1], x1 = 0.9629	816.9	807.57	798.22	–	–	–	5.245	3.052	2.234
[1], x1 = 1	814.01	804.88	795.52	–	–	–	5.867	3.478	2.504
[2], x1 = 0.1028	–	–	–	1.4076	1.4027	1.3979	–	–	–
[2], x1 = 0.1791	–	–	–	1.4069	1.4022	1.3974	–	–	–
[2], x1 = 0.2676	–	–	–	1.4065	1.4018	1.3972	–	–	–
[2], x1 = 0.3601	–	–	–	1.4064	1.4018	1.3971	–	–	–
[2], x1 = 0.45	–	–	–	1.4066	1.402	1.3972	–	–	–
[2], x1 = 0.5402	–	–	–	1.4068	1.4022	1.3974	–	–	–
[2], x1 = 0.6295	–	–	–	1.407	1.4023	1.3976	–	–	–
[2], x1 = 0.7058	–	–	–	1.4071	1.4024	1.3977	–	–	–
[2], x1 = 0.8097	–	–	–	1.4071	1.4024	1.3977	–	–	–
[2], x1 = 0.8903	–	–	–	1.4069	1.4022	1.3975	–	–	–
[2], x1 = 0.9629	–	–	–	1.4065	1.4018	1.3972	–	–	–
[2], x1 = 1	–	–	–	1.4062	1.4015	1.3968	–	–	–

CCCN [propan-1-amine] + C1CCOC1
Conditions	mass density, [1] [kg/m3]	refractive index, [2]	viscosity, [1] [mPa·s]
288.15 K, x2 = 0	721.57	1.3899	0.3851
288.15 K, x2 = 0.0542	730.55	1.3908	0.3898
288.15 K, x2 = 0.1599	748.15	1.3927	0.3991
288.15 K, x2 = 0.1934	753.76	1.3933	0.4021
288.15 K, x2 = 0.3199	775.03	1.3956	0.4138
288.15 K, x2 = 0.4	788.58	1.397	0.4211
288.15 K, x2 = 0.4789	802.01	1.3985	0.4289
288.15 K, x2 = 0.56	815.87	1.4	0.4371
288.15 K, x2 = 0.6402	829.71	1.4015	0.4455
288.15 K, x2 = 0.7201	843.56	1.4031	0.4546
288.15 K, x2 = 0.8791	871.41	1.4062	0.4765
288.15 K, x2 = 0.9585	885.46	1.4078	0.4902
298.15 K, x2 = 0	711.08	1.3844	0.3585
298.15 K, x2 = 0.0542	719.96	1.3854	0.3632
298.15 K, x2 = 0.1599	737.23	1.3873	0.372
298.15 K, x2 = 0.1934	742.73	1.3879	0.3747
298.15 K, x2 = 0.3199	763.65	1.3902	0.3856
298.15 K, x2 = 0.4	777.02	1.3917	0.3926
298.15 K, x2 = 0.4789	790.28	1.3931	0.3996
298.15 K, x2 = 0.56	804.04	1.3947	0.4071
298.15 K, x2 = 0.6402	–	1.3965	–
298.15 K, x2 = 0.651	819.66	–	0.4149
298.15 K, x2 = 0.7201	831.66	1.3978	0.4229
298.15 K, x2 = 0.8791	859.85	1.4011	0.4396
298.15 K, x2 = 0.9585	874.29	1.4028	0.4489
308.15 K, x2 = 0	700.4	1.3784	0.3222
308.15 K, x2 = 0.0542	709.15	1.3793	0.3269
308.15 K, x2 = 0.1599	726.3	1.3812	0.3363
308.15 K, x2 = 0.1934	731.73	1.3818	0.3393
308.15 K, x2 = 0.3199	752.47	1.3842	0.3509
308.15 K, x2 = 0.4	765.73	1.3857	0.3584
308.15 K, x2 = 0.4789	778.88	1.3873	0.3659
308.15 K, x2 = 0.56	792.57	1.3889	0.3736
308.15 K, x2 = 0.6402	–	1.3906	–
308.15 K, x2 = 0.651	806.31	–	0.3813
308.15 K, x2 = 0.7201	820.22	1.3923	0.3891
308.15 K, x2 = 0.8791	848.66	1.3958	0.4049
308.15 K, x2 = 0.9585	863.3	1.3977	0.4129

CCCN [propan-1-amine] + CCC(C)(C)O
Conditions	mass density, 288.15 K [kg/m3]	mass density, 298.15 K [kg/m3]	mass density, 308.15 K [kg/m3]	refractive index, 288.15 K	refractive index, 298.15 K	refractive index, 308.15 K	viscosity, 288.15 K [mPa·s]	viscosity, 298.15 K [mPa·s]	viscosity, 308.15 K [mPa·s]
[1], x2 = 0	721.57	711.08	700.4	–	–	–	0.3851	0.3585	0.3222
[1], x2 = 0.0733	731.65	721.43	710.97	–	–	–	0.4625	0.4161	0.3822
[1], x2 = 0.1528	742.12	732.03	721.79	–	–	–	0.5521	0.4813	0.4437
[1], x2 = 0.2327	752	742.1	732.07	–	–	–	0.6938	0.5258	0.501
[1], x2 = 0.3155	761.54	751.82	741.93	–	–	–	0.8513	0.6157	0.5725
[1], x2 = 0.398	770.38	760.84	751.09	–	–	–	1.041	0.7142	0.6756
[1], x2 = 0.4888	779.41	770.02	760.39	–	–	–	1.354	0.8835	0.8338
[1], x2 = 0.5804	787.76	778.45	768.97	–	–	–	1.827	1.129	1.03
[1], x2 = 0.6697	795.11	785.88	776.64	–	–	–	2.39	1.468	1.283
[1], x2 = 0.7769	802.69	793.82	784.6	–	–	–	3.288	1.974	1.664
[1], x2 = 0.8741	808.3	799.58	790.43	–	–	–	4.258	2.565	2.03
[1], x2 = 0.9498	811.88	803.1	793.93	–	–	–	5.17	3.068	2.304
[2], x2 = 0	–	–	–	1.3899	1.3844	1.3784	–	–	–
[2], x2 = 0.0733	–	–	–	1.392	1.3868	1.3809	–	–	–
[2], x2 = 0.1528	–	–	–	1.3944	1.3893	1.3835	–	–	–
[2], x2 = 0.2327	–	–	–	1.3968	1.3917	1.386	–	–	–
[2], x2 = 0.3155	–	–	–	1.3989	1.394	1.3884	–	–	–
[2], x2 = 0.398	–	–	–	1.4009	1.3961	1.3906	–	–	–
[2], x2 = 0.4888	–	–	–	1.4028	1.398	1.3926	–	–	–
[2], x2 = 0.5804	–	–	–	1.4043	1.3996	1.3944	–	–	–
[2], x2 = 0.6697	–	–	–	1.4053	1.4005	1.3954	–	–	–
[2], x2 = 0.7769	–	–	–	1.4058	1.4012	1.3962	–	–	–
[2], x2 = 0.8741	–	–	–	1.406	1.4013	1.3964	–	–	–
[2], x2 = 0.9498	–	–	–	1.4061	1.4014	1.3966	–	–	–
